Assay results from article PMC6104039 (Nature Communications, 2018).
Values joined by “and” are separate entries in the source; they are usually repeats but may differ in a detail not shown here. Equal values may be shown once.

System: HEK293 cells
Test: Endogenous ceramide, HexCer and SM levels in cells treated 24 h, targeted LC-MS/MS
Assay type: cell-based
Set-up: Cer 18:1/24:0 content in HEK293 cells / Cer 18:1/24:1 content in HEK293 cells / HexCer 18:1/16:0 content in HEK293 cells / HexCer 18:1/18:0 content in HEK293 cells / HexCer 18:1/20:0 content in HEK293 cells / HexCer 18:1/22:0 content in HEK293 cells / Cer 18:1/16:0 content in HEK293 cells / Cer 18:1/18:0 content in HEK293 cells / Cer 18:1/20:0 content in HEK293 cells / Cer 18:1/22:0 content in HEK293 cells: unit not given here
Details: replicates, raw data Suppl Fig 1
Experimental: Lipids were then extracted using MTBE/methanol/water as described above.
HEK293 cell culture experiment: Levels of each lipid in P053-treated HEK293 cells were normalised to the mean of the vehicle control group, and each concentration was compared to the control using ANOVA with Dunnett’s post-test. P values were adjusted for multiple comparisons in GraphPad PRISM.
Supplementary Figure 1. Ceramide, SM, and HexCer levels in HEK293 cells treated with
P053. Absolute lipid levels were determined by targeted LC-MS/MS, relative to external
standard curves. Results are mean ± SEM (n = 4) from one of two identical experiments.
Statistically significant results, based on two independent experiments, are as indicated in
Figure 2b-d. Raw data for these figures is provided in Supplementary Data File 1.

Structure (SMILES): C[C@@](N)(CO)CCc1ccc(OCc2ccc(Cl)c(Cl)c2)cc1 [P053, (S)-2-amino-4-(4-(3,4-dichlorobenzyloxy)phenyl)-2-methylbutan-1-ol]
- Cer 18:1/24:0 content in HEK293 cells (P053 10 nM): 78.2507 and 97.4893 and 100.975 and 120.086
- Cer 18:1/24:1 content in HEK293 cells (P053 10 nM): 41.2869 and 36.9476 and 41.283 and 38.2211
- HexCer 18:1/16:0 content in HEK293 cells (P053 10 nM): 30.7043 and 33.6425 and 33.4465 and 30.9255
- HexCer 18:1/18:0 content in HEK293 cells (P053 10 nM): 4.5494 and 4.09 and 4.473 and 4.32
- HexCer 18:1/20:0 content in HEK293 cells (P053 10 nM): 0.3088 and 0.3692 and 0.4154 and 0.4356
- HexCer 18:1/22:0 content in HEK293 cells (P053 10 nM): 36.8189 and 34.9551 and 38.6561 and 38.9837
- HexCer 18:1/24:0 content in HEK293 cells (P053 10 nM): 199.303 and 216.657 and 249.013 and 199.834
- HexCer 18:1/24:1 content in HEK293 cells (P053 10 nM): 70.2405 and 72.3688 and 73.5755 and 68.734
- SM 32:1 content in HEK293 cells (P053 10 nM): 35.2485 and 30.6751 and 30.1932 and 30.0675
- SM 34:1 content in HEK293 cells (P053 10 nM): 296.401 and 243.663 and 224.502 and 225.737
- SM 34:2 content in HEK293 cells (P053 10 nM): 47.2234 and 40.324 and 36.1571 and 38.6716
- SM 36:1 content in HEK293 cells (P053 10 nM): 29.6301 and 20.7933 and 22.4748 and 21.0053
- SM 36:2 content in HEK293 cells (P053 10 nM): 11.2341 and 9.942 and 8.241 and 8.207
- SM 38:1 content in HEK293 cells (P053 10 nM): 6.182 and 8.401 and 6.6333 and 8.787
- SM 40:1 content in HEK293 cells (P053 10 nM): 40.0944 and 41.0366 and 34.4775 and 35.2843
- SM 40:2 content in HEK293 cells (P053 10 nM): 10.3276 and 10.9643 and 10.3385 and 8.643
- SM 42:1 content in HEK293 cells (P053 10 nM): 68.7535 and 68.4711 and 69.6713 and 77.5442
- SM 42:2 content in HEK293 cells (P053 10 nM): 119.092 and 115.121 and 104.672 and 105.467
- Cer 18:1/16:0 content in HEK293 cells (P053 30 nM): 19.0547 and 20.8444 and 18.7423 and 20.5749
- Cer 18:1/18:0 content in HEK293 cells (P053 30 nM): 5.081 and 5.075 and 4.316 and 4.99
- Cer 18:1/20:0 content in HEK293 cells (P053 30 nM): 0.7183 and 0.7479 and 0.6521 and 0.6855
- Cer 18:1/22:0 content in HEK293 cells (P053 30 nM): 57.3121 and 66.2959 and 65.6669 and 64.5364
- Cer 18:1/24:0 content in HEK293 cells (P053 30 nM): 85.8777 and 134.225 and 118.415 and 97.9167
- Cer 18:1/24:1 content in HEK293 cells (P053 30 nM): 37.3744 and 44.4522 and 42.1609 and 41.0899
- HexCer 18:1/16:0 content in HEK293 cells (P053 30 nM): 29.7152 and 31.7982 and 33.8438 and 30.9723
- HexCer 18:1/18:0 content in HEK293 cells (P053 30 nM): 3.0394 and 3.951 and 4.099 and 3.127
- HexCer 18:1/20:0 content in HEK293 cells (P053 30 nM): 0.3329 and 0.4128 and 0.4628 and 0.5232
- HexCer 18:1/22:0 content in HEK293 cells (P053 30 nM): 32.4873 and 39.9972 and 37.7095 and 34.9843
- HexCer 18:1/24:0 content in HEK293 cells (P053 30 nM): 190.472 and 249.822 and 223.238 and 200.878
- HexCer 18:1/24:1 content in HEK293 cells (P053 30 nM): 66.6616 and 76.2502 and 69.0398 and 65.5993
- SM 32:1 content in HEK293 cells (P053 30 nM): 30.2036 and 32.0092 and 28.7617 and 34.5111
- SM 34:1 content in HEK293 cells (P053 30 nM): 248.003 and 262.537 and 249.572 and 281.872
- SM 34:2 content in HEK293 cells (P053 30 nM): 41.231 and 41.1196 and 40.1333 and 43.2759
- SM 36:1 content in HEK293 cells (P053 30 nM): 22.0304 and 22.5253 and 18.9401 and 24.6728
- SM 36:2 content in HEK293 cells (P053 30 nM): 9.089 and 8.502 and 8.127 and 10.0466
- SM 38:1 content in HEK293 cells (P053 30 nM): 14.9847 and 8.56 and 5.18 and 11.7454
- SM 40:1 content in HEK293 cells (P053 30 nM): 39.8982 and 44.3327 and 34.2754 and 42.2123
- SM 40:2 content in HEK293 cells (P053 30 nM): 9.856 and 9.764 and 9.362 and 10.5652
- SM 42:1 content in HEK293 cells (P053 30 nM): 69.7563 and 80.9547 and 78.46 and 71.8434
- SM 42:2 content in HEK293 cells (P053 30 nM): 104.731 and 121.981 and 114.303 and 118.688
- Cer 18:1/16:0 content in HEK293 cells (P053 100 nM): 22.9494 and 19.2357 and 22.5073 and 19.0496
- Cer 18:1/18:0 content in HEK293 cells (P053 100 nM): 2.972 and 3.68 and 3.21 and 2.092
- Cer 18:1/20:0 content in HEK293 cells (P053 100 nM): 0.613 and 0.738 and 0.687 and 0.5601
- Cer 18:1/22:0 content in HEK293 cells (P053 100 nM): 66.0373 and 65.445 and 75.6523 and 61.1907
- Cer 18:1/24:0 content in HEK293 cells (P053 100 nM): 95.8984 and 114.847 and 144.796 and 106.353
- Cer 18:1/24:1 content in HEK293 cells (P053 100 nM): 43.7952 and 41.4019 and 48.5214 and 41.0347
- HexCer 18:1/16:0 content in HEK293 cells (P053 100 nM): 28.7244 and 29.2314 and 27.3495 and 32.1782
- HexCer 18:1/18:0 content in HEK293 cells (P053 100 nM): 1.552 and 2.033 and 2.382 and 2.572
- HexCer 18:1/20:0 content in HEK293 cells (P053 100 nM): 0.3018 and 0.2953 and 0.2763 and 0.1537
- HexCer 18:1/22:0 content in HEK293 cells (P053 100 nM): 35.0199 and 40.376 and 33.9893 and 41.9484
- HexCer 18:1/24:0 content in HEK293 cells (P053 100 nM): 193.278 and 206.781 and 205.001 and 225.138
- HexCer 18:1/24:1 content in HEK293 cells (P053 100 nM): 66.6213 and 67.2246 and 64.4273 and 72.2662
- SM 32:1 content in HEK293 cells (P053 100 nM): 33.5311 and 33.1495 and 31.0137 and 33.9978
- SM 34:1 content in HEK293 cells (P053 100 nM): 239.205 and 244.554 and 241.828 and 261.421
- SM 34:2 content in HEK293 cells (P053 100 nM): 40.9604 and 43.1506 and 39.5005 and 44.6858
- SM 36:1 content in HEK293 cells (P053 100 nM): 15.6181 and 17.1499 and 17.2078 and 18.9256
- SM 36:2 content in HEK293 cells (P053 100 nM): 6.971 and 7.206 and 7.1332 and 7.405
- SM 38:1 content in HEK293 cells (P053 100 nM): 4.352 and 7.605 and 11.0645 and 10.3031
- SM 40:1 content in HEK293 cells (P053 100 nM): 39.6185 and 38.4983 and 41.6326 and 45.0957
- SM 40:2 content in HEK293 cells (P053 100 nM): 10.6428 and 11.1113 and 10.5382 and 10.6417
- SM 42:1 content in HEK293 cells (P053 100 nM): 70.6629 and 69.6062 and 82.0245 and 85.9318
- SM 42:2 content in HEK293 cells (P053 100 nM): 112.606 and 107.685 and 114.026 and 114.211
- Cer 18:1/16:0 content in HEK293 cells (P053 300 nM): 17.822 and 19.0766 and 17.3933
- Cer 18:1/18:0 content in HEK293 cells (P053 300 nM): 1.8912 and 1.699 and 1.376
- Cer 18:1/20:0 content in HEK293 cells (P053 300 nM): 0.7162 and 0.4601 and 0.6576
- Cer 18:1/22:0 content in HEK293 cells (P053 300 nM): 64.624 and 69.7847 and 70.6121
- Cer 18:1/24:0 content in HEK293 cells (P053 300 nM): 94.7176 and 106.124 and 124.497
- Cer 18:1/24:1 content in HEK293 cells (P053 300 nM): 42.6517 and 39.4375 and 41.6471
- HexCer 18:1/16:0 content in HEK293 cells (P053 300 nM): 26.9367 and 27.3197 and 28.9409
- HexCer 18:1/18:0 content in HEK293 cells (P053 300 nM): 1.661 and 1.355 and 1.491
- HexCer 18:1/20:0 content in HEK293 cells (P053 300 nM): 0.2792 and 0.518 and 0.2446
- HexCer 18:1/22:0 content in HEK293 cells (P053 300 nM): 43.5691 and 40.2015 and 45.0568
- HexCer 18:1/24:0 content in HEK293 cells (P053 300 nM): 220.79 and 197.985 and 254.871
- HexCer 18:1/24:1 content in HEK293 cells (P053 300 nM): 63.1626 and 68.7371 and 74.9033
- SM 32:1 content in HEK293 cells (P053 300 nM): 31.4532 and 33.3582 and 37.098
- SM 34:1 content in HEK293 cells (P053 300 nM): 241.436 and 241.197 and 248.392
- SM 34:2 content in HEK293 cells (P053 300 nM): 42.0268 and 43.5268 and 45.2968
- SM 36:1 content in HEK293 cells (P053 300 nM): 14.7086 and 14.6722 and 17.3205
- SM 36:2 content in HEK293 cells (P053 300 nM): 6.184 and 6.8179 and 6.541
- SM 38:1 content in HEK293 cells (P053 300 nM): 9.78 and 11.6533 and 8.0822
- SM 40:1 content in HEK293 cells (P053 300 nM): 43.4372 and 43.0067 and 50.439
- SM 40:2 content in HEK293 cells (P053 300 nM): 12.0217 and 11.0813 and 11.4772
- SM 42:1 content in HEK293 cells (P053 300 nM): 70.0557 and 70.3641 and 94.669
- SM 42:2 content in HEK293 cells (P053 300 nM): 117.582 and 110.303 and 130.267
